Where “and” joins values, the source holds several entries; their conditions need not be identical. Equal entries are not always repeated.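 Dose response: 5 concentrations. Exposure: 48 h. Format: 96-well plates. Endpoint: linear interpolation; highest concentration if not reached. Abbreviation: GI50, concentration required for 50% inhibition of growth. TGI denotes the concentration required for complete inhibition of growth.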
Legend:
Test in all cases: NCI anticancer screen, dose series, 48 h
CCRF-CEM leukemia = system: CCRF-CEM leukemia
HOP-92 NSCLC = system: HOP-92 NSCLC
HS 578T breast = system: HS 578T breast
K-562 leukemia = system: K-562 leukemia
NCI-H460 lung = system: NCI-H460 lung
NCI/ADR-RES ovarian = system: NCI/ADR-RES ovarian
SW-620 colon = system: SW-620 colon
UACC-257 melanoma = system: UACC-257 melanoma
UACC-62 melanoma = system: UACC-62 melanoma
UO-31 renal = system: UO-31 renal

SMILES	TGI (CCRF-CEM leukemia)	TGI (HOP-92 NSCLC)	TGI (HS 578T breast) [µM]	TGI (K-562 leukemia) [µM]	TGI (NCI-H460 lung)	TGI (NCI/ADR-RES ovarian) [µM]	TGI (SW-620 colon)	TGI (UACC-257 melanoma)	TGI (UACC-62 melanoma)	TGI (UO-31 renal)	GI50 (NCI/ADR-RES ovarian) [µM]	GI50 (SW-620 colon)
N=c1oc2ccc([N+](=O)[O-])cc2cc1C(=O)Nc1ccccn1	> 100 µM	> 100 µM	78.5	> 100	> 100 µM	> 100	> 100 µM	> 100 µM	> 100 µM			
CCOC(=O)CCC(NC(=O)c1ccc(OCc2ccc3nc(OC)c(OC)nc3c2)cc1)C(=O)OCC (configuration not stated)	93.5 µM	> 100 µM	> 100	> 100	> 100 µM		> 100 µM	> 100 µM	> 100 µM	> 100 µM		
CC(=O)N1N=C(c2ccccc2Nc2ccccc2C2=NN(C(C)=O)C(c3ccccc3)O2)OC1c1ccccc1 (configuration not stated)		> 100 µM		> 100	> 100 µM	> 100	> 100 µM		> 100 µM	> 100 µM		
CC(C)(C)C(=O)CC(=O)C(F)(F)C(F)(F)C(F)(F)F.CC(C)(C)C(=O)CC(=O)C(F)(F)C(F)(F)C(F)(F)F.CC(C)(C)C(=O)CC(=O)C(F)(F)C(F)(F)C(F)(F)F.[Er]	> 100 µM		> 100	> 100	> 100 µM		> 100 µM		> 100 µM	> 100 µM		
O=C(O)c1cccc(S(=O)(=O)NN2C(=O)CSC2c2ccccc2Cl)c1 (configuration not stated)	> 100 µM	> 100 µM	> 100	> 100	> 100 µM		> 100 µM	> 100 µM	> 100 µM	> 100 µM		
Cc1ccccc1C(=O)NC(O)(C(F)(F)F)C(F)(F)F	> 100 µM	> 100 µM	> 100	> 100	> 100 µM	> 100	> 100 µM	> 100 µM		> 100 µM		
Clc1cc2nnn(C3CCCCO3)c2cc1Cl (configuration not stated)	> 100 µM		> 100	> 100	> 100 µM	> 100		> 100 µM	> 100 µM	> 100 µM		
CCn1c(SCC(=O)NNC(=S)Nc2ccc(Cl)cc2)nc2ccccc2c1=O	> 100 µM		> 100	> 100	> 100 µM	> 100	> 100 µM	> 100 µM	> 100 µM	> 100 µM		
C[As](C)SCC(NC(=O)CCC(N)C(=O)O)C(=O)NCC(=O)O.Cl.c1ccncc1 (configuration not stated)	6.31 µM	0.763 µM	4.6		8.9 µM	9.71	6.59 µM	2.46 µM	1.13 µM	1.31 µM		
N#Cc1c(N)nc2c(N=Nc3ccccc3)c(N)nn2c1Nc1ccccc1	> 100 µM	31.6 µM		> 100	44.3 µM	53.9	50.3 µM	38.9 µM				
CC(=O)OCC1=C2C(OC(=O)C(C)C)CC3(COC(C)=O)OC3/C=C\C3(C)OC3C2OC1=O (configuration not stated)	> 100 µM		> 100	> 100	> 100 µM		> 100 µM	> 100 µM	> 100 µM	> 100 µM		
C=C(C)C1Cc2c(cc(OC)c3c(=O)c4ccccc4n(C)c23)O1 (configuration not stated)	> 100 µM	> 100 µM		> 100	> 100 µM		> 100 µM	> 100 µM	> 100 µM	> 100 µM		
COC(=O)C(=O)c1cc2ccccc2n1S(=O)(=O)c1ccccc1	> 100 µM	> 100 µM		> 100	> 100 µM	> 100	> 100 µM	> 100 µM	> 100 µM	> 100 µM		
COc1cc(CC(C)N[C@@H](C)c2ccccc2)cc(OC)c1 (some centres not stated)	24 µM and > 100 µM	10.8 µM and > 100 µM	> 100		12.1 µM and > 100 µM	> 100	26.3 µM and > 100 µM	19.5 µM and > 100 µM	19.8 µM and > 100 µM	13.9 µM and > 100 µM	> 100	11.7 µM and > 100 µM
CSC1=N/C(=C\c2ccccc2)C(=O)N1CN1CCOCC1	> 100 µM	> 100 µM	> 100	> 100		> 100	> 100 µM		> 100 µM	> 100 µM		
c1ccc(CNCCCNCCCCNCCCNCc2ccccc2)cc1	> 21.5 µM	3.57 µM	3.74		19.1 µM	> 100	9.13 µM	31.1 µM	21.1 µM	25.7 µM		
O=C1NC2(NC(=O)C1=O)Nc1ccccc1S2	66.3 µM	> 100 µM		> 64.7	> 100 µM		> 46.1 µM	> 100 µM	63.8 µM	> 95.4 µM		
COC(=O)c1ccc(-n2c(C)nc(=O)c(-c3ccccc3)c2C)cc1	> 100 µM	> 100 µM	> 100	> 100	> 100 µM	> 100	> 100 µM	> 100 µM		> 100 µM		
C=CCN1C(=O)/C(=C/c2ccccc2)N=C1SC1OC(COC(C)=O)C(OC(C)=O)C(OC(C)=O)C1OC(C)=O (configuration not stated)	> 100 µM	76.6 µM	72.2	> 100	> 100 µM	69.4	> 100 µM	> 100 µM	52.4 µM			
O=C1NC(=O)/C(=C/c2ccc(S(=O)(=O)N/N=C/c3ccccc3)cc2)N1	> 100 µM	> 100 µM	> 100	> 100		> 100	> 100 µM	> 100 µM	> 100 µM	> 100 µM		
CC(C)(C)OC(=O)N1CCCC1C(=O)NCCNc1ccc(NCCNC(=O)C2CCCN2C(=O)OC(C)(C)C)c2c1C(=O)c1ccccc1C2=O (configuration not stated)	> 100 µM	30.1 µM	69.5	> 100		29.6	29.8 µM	29.6 µM	23.8 µM			
O=C1C=Cc2c1csc2Br	45.8 µM		> 100	97.7	> 100 µM	> 100	48.8 µM	> 100 µM	> 100 µM	72.5 µM		
COc1ccc2[nH]c3c(C)c4ccnc(NCCCN(C)CCCN)c4c(C)c3c2c1	> 32.1 µM			> 100	0.213 µM	2.09		2.95 µM	0.479 µM	3.23 µM		
CCOC(=O)C(Cc1ccc2c(c1)CCC2)Cc1ccc2c(c1)CCC2	> 100 µM	> 100 µM	> 100	85.7	> 100 µM	> 100	> 100 µM	> 100 µM		> 100 µM		

SMILES	TGI (CCRF-CEM leukemia)	TGI (HOP-92 NSCLC)	TGI (HS 578T breast) [µM]	TGI (K-562 leukemia) [µM]	TGI (NCI-H460 lung)	TGI (NCI/ADR-RES ovarian) [µM]	TGI (SW-620 colon)	TGI (UACC-257 melanoma)	TGI (UACC-62 melanoma)	TGI (UO-31 renal)	GI50 (NCI/ADR-RES ovarian) [µM]	GI50 (SW-620 colon)
COC(=O)CCN1CCN(CCO)CC1C (configuration not stated)	> 10 µM		> 10	> 10	> 10 µM	> 10	> 10 µM	> 10 µM	> 10 µM	> 10 µM		
Cc1ccc(N(C)S(=O)(=O)c2ccccc2)cc1	> 100 µM		> 100	> 100	> 100 µM	> 100	> 100 µM	> 100 µM	> 100 µM	> 100 µM		
O=[N+]([O-])c1ccc(/C=N/n2c(CCc3n[nH]c(=S)n3/N=C/c3ccc([N+](=O)[O-])o3)n[nH]c2=S)o1	67.7 µM	33.6 µM	62.2	> 100	> 100 µM	88.7	32.7 µM	83.8 µM		89.9 µM		
Cc1ccc(S(=O)(=O)N/N=C2/C3C(CC2(C)C)C2(C)CCCC3(C)C2O)cc1 (configuration not stated)	59.4 µM	33.3 µM	55.6	> 100	37.7 µM	94.6		33.3 µM	30 µM	> 100 µM		
CC(=O)C1=C(C)N(c2ccc(C)cc2)C2(O)C=CC(=O)C3=C(O)c4ccccc4C(=O)C312 (configuration not stated)		> 100 µM	> 100	> 100	> 100 µM	> 100	> 100 µM	27.1 µM	27.4 µM	34.8 µM		
CCCC1=NC(C(F)(F)F)(C(F)(F)F)N=C(N2CCOCC2)O1	> 100 µM	> 100 µM	> 100	> 100		> 100	> 100 µM	> 100 µM	> 100 µM	> 100 µM		
CCCC(=O)n1[nH]c(=O)n(C(C)(C)C)c1=O	> 100 µM		> 100	> 100	> 100 µM	> 100	> 100 µM	> 100 µM	> 100 µM	> 100 µM		
Cc1ccc(S(=O)(=O)C(C#N)c2nc3ccccc3nc2N2CCOCC2)cc1 (configuration not stated)	62.2 µM				39.7 µM		> 100 µM	> 100 µM	28.5 µM	> 100 µM		
O=NN(CCCl)C(=O)Nc1ccc(Cl)c(Cl)c1	> 100 µM	97.8 µM		> 100	> 100 µM	> 100	> 100 µM	> 100 µM	> 100 µM	99.3 µM		
CC12OC3(C(O)C1O)C(C(=O)O[C@H]3CO[Si](C)(C)C(C)(C)C)C2S(=O)(=O)c1ccccc1 (some centres not stated)		> 100 µM	> 100	> 100	> 100 µM	30.4	> 100 µM	69 µM	36 µM	> 100 µM		
Cn1c2c(c3ccccc31)CC(=O)N1CCCC(C1)CC21OCCO1 (configuration not stated)	> 100 µM	> 100 µM		> 100	> 100 µM	> 100	> 100 µM	> 100 µM	> 100 µM	> 100 µM		
Oc1ccc(NCc2cc(O)ccc2O)cc1		31.5 µM	> 100	55.2	39.1 µM	51.3	> 100 µM	32 µM	29.3 µM	29.4 µM		
CC(=O)O[C@@H]1[C@@H](C)[C@]2(CC(c3ccoc3)OC2O)C2CCC3O[C@]3(C)[C@]2(C)[C@@H]1OC(C)=O (some centres not stated)	61.5 µM	> 100 µM	> 100		> 100 µM	> 100	> 100 µM	> 100 µM	> 100 µM	> 100 µM		
c1csc(-c2sc(-c3ccsc3)cc2Cc2ccsc2)c1	> 10 µM	> 10 µM		> 10			> 10 µM	> 10 µM	> 10 µM			
O=C(/C=C/c1cc(F)ccc1F)OCCc1ccccc1	> 100 µM	> 100 µM	> 100	> 100		> 100	> 100 µM	> 100 µM	> 100 µM	> 100 µM		
COC(=N)c1ncn(Cc2ccccc2)c1N	> 100 µM	> 100 µM	> 100	> 100	> 100 µM	> 100	> 100 µM	> 100 µM	> 100 µM			
C=CC(Br)(CBr)CCC(Br)C(C)(C)Br (configuration not stated)		29.9 µM		66	23.4 µM		26.6 µM	27.6 µM	24.6 µM	28.8 µM		
CCOC(=O)c1ncn2c1[nH]c(=O)c1ccccc12	> 100 µM			> 100	> 100 µM		> 100 µM		> 100 µM	> 100 µM		
COc1ccc(N2C(=O)C(C#N)=C(SC)C(C#N)C2=O)cc1 (configuration not stated)	> 100 µM	> 100 µM	89.8	> 100	> 100 µM	> 100	> 100 µM	> 100 µM	> 100 µM			
N#Cc1nc(-c2ccccc2O)oc1N	> 100 µM	> 100 µM	> 100	> 100			> 100 µM	> 100 µM	> 100 µM			
Cc1ccc([S+](c2ccccc2)c2cc(C)ccc2C)cc1 (configuration not stated)	> 100 µM			> 100	> 100 µM		> 100 µM	> 100 µM	> 100 µM	> 100 µM		
COc1ccc(C(=O)/C=C/c2ccc(OCC#N)cc2)cc1OC	31.3 µM	44.3 µM	> 100	> 100	> 100 µM	50.2	23.4 µM		36.7 µM	32.6 µM		
c1ccc(N=C2C(=Nc3ccccc3)N(C3CCCCC3)C(=NC3CCCCC3)N2c2ccccc2)cc1		> 100 µM	> 100	> 100	> 100 µM		> 100 µM	> 100 µM		> 100 µM		
c1ccc2c(c1)ncn2CCn1ccnc1	> 100 µM		> 100	> 100	> 100 µM	> 100	> 100 µM		> 100 µM	> 100 µM		

Reference: PubChem BioAssay (NCI)
